Assay results: patent US6383527B1, “Compositions comprising valerian extracts, isovaleric acid or derivatives thereof with a NSAID” (NPS Pharmaceuticals, Inc., priority 2001, dated 2002)

Tests used:
CNS = conditions: in vivo; cited from earlier work
[1] = tested on: recurrent excessive lower back pain; assay: Case report Example 1: valerian preparation and ibuprofen for recurrent, excessive lower back pain; type: in vivo, human; conditions: person; preparation taken by itself
Description: These examples are provided for purposes of illustration and are not intended to be limiting of the invention. A person was complaining of recurrent excessive lower back pain from prior injuries. During a bout of lower back pain, they stated that […] could not sleep or sit comfortably and was in duress from the constant pain. […] It was stated that the ibuprofen would provide a decrease in inflammation and some analgesic therapy whereas the addition of the valerian and hops extract could provide a decrease in the muscle tone and analgesia as well, thereby allowing for relief from the pain. […] Their spouse stated that […] “acted like a new […]” because they were not grimacing and stooped from pain.

[2] = acid- and heat-labile; release two moles of isovaleric acid per mole; cited from earlier work
[3] = tested on: excessive lower back pain; assay: Case report Example 2: valerian preparation and ibuprofen for acute muscle strain from overexertion; type: in vivo, human; conditions: person; ibuprofen taken alone
Description: These examples are provided for purposes of illustration and are not intended to be limiting of the invention. A person, complained of excessive lower back pain that interfered with sleeping and the general activities of daily living such as sitting or standing. They had injured their back while shoveling deep snow from their driveway and sidewalk. They had been taking ibuprofen but experiencing little relief. […] They continued to take the combination until their back healed and no longer gave their pain without medication.

[4] = cited from earlier work
[5] = clinical; cited from earlier work

## CCN(CC)C(=O)CC(C)C [N,N-Diethyl isovaleramide]
CNS
  CNS properties: CNS stimulant (convulsant) properties

## CC(=O)Nc1ccc(O)cc1 [acetaminophen]
[1]
  relief from lower back pain: without any useful sense of relief

## CC(=O)Oc1ccccc1C(=O)O [aspirin]
[1]
  relief from lower back pain: without any useful sense of relief

## CC(=O)O[C@H]1C[C@@H]2C(COC(=O)CC(C)C)=CO[C@@H](OC(=O)CC(C)C)[C@@H]2[C@@]12CO2 [didrovaltrate]
[2]
  survival in the stomach following oral administration: do not survive intact

## CC(C)Cc1ccc(C(C)C(=O)O)cc1 (stereo not drawn) [ibuprofen]
[1]
  relief from lower back pain: without any useful sense of relief
[3]
  relief from lower back pain: little relief

## CC(C)CC(N)=O [isovaleramide]
[4]
  acute toxicity in vivo: low acute toxicity
[5]
  anxiolytic properties: clinically useful anxiolytic properties

## CC(=O)OCC1=CO[C@@H](OC(=O)CC(C)C)[C@H]2C1=C[C@H](OC(=O)CC(C)C)[C@]21CO1 [valtrate]
[2]
  survival in the stomach following oral administration: do not survive intact
